Data published in patent US7118895B2, “Process for producing aglycon by using diglycosidase and flavor-improved food containing the aglycon and converting agent to be used in the process” (Amano Enzyme Inc., priority 2000, dated 2006).

System: Crude diglycosidase
Assay: Examination of temperature in the conversion into isoflavone aglycons by diglycosidase using soybean materials
Assay type: biochemical, Penicillium multicolor IAM7153
Design: Decomposition efficiency of glycitin family in roasted soy flour / Decomposition efficiency of daidzin family in roasted soy flour / Decomposition efficiency of genistin family in soymilk / Decomposition efficiency of daidzin family in soymilk / Decomposition efficiency of glycitin family in defatted soybean / Decomposition efficiency of daidzin family in defatted soybean: concentration or dose not given beside the values
Conditions: for maximum isolation of aglycons: reaction at 55° C. for 6 hours
Summary of the method: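 Temperature series (30-80° C.) of crude diglycosidase, diluted to 1.88 AU/mL in 20 mM acetate pH 4.0, acting on roasted soy flour, soymilk, defatted soybean or soy protein concentrate. Samples quenched with ethanol after 0-6 h, centrifuged, filtered and analyzed by HPLC for glycosides versus aglycons.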

[1] = 30° C., heat treatment of enzyme no, reaction time 0 h
[2] = 30° C., heat treatment of enzyme no, reaction time 1 h
[3] = 30° C., heat treatment of enzyme no, reaction time 3 h
[4] = 30° C., heat treatment of enzyme no, reaction time 6 h
[5] = 30° C., heat treatment of enzyme yes, reaction time 6 h
[6] = 45° C., heat treatment of enzyme no, reaction time 0 h
[7] = 45° C., heat treatment of enzyme no, reaction time 1 h
[8] = 45° C., heat treatment of enzyme no, reaction time 3 h
[9] = 45° C., heat treatment of enzyme no, reaction time 6 h
[10] = 45° C., heat treatment of enzyme yes, reaction time 6 h
[11] = 45 °C, heat treatment of enzyme: no, 0 h
[12] = 45 °C, heat treatment of enzyme: no, 1 h
[13] = 45 °C, heat treatment of enzyme: no, 3 h
[14] = 45 °C, heat treatment of enzyme: no, 6 h
[15] = 45 °C, heat treatment of enzyme: yes, 6 h
[16] = 55° C., heat treatment of enzyme no, reaction time 0 h
[17] = 55° C., heat treatment of enzyme no, reaction time 1 h
[18] = 55° C., heat treatment of enzyme no, reaction time 3 h
[19] = 55° C., heat treatment of enzyme no, reaction time 6 h
[20] = 55° C., heat treatment of enzyme yes, reaction time 6 h
[21] = 55 °C, heat treatment of enzyme: no, 0 h
[22] = 55 °C, heat treatment of enzyme: no, 1 h
[23] = 55 °C, heat treatment of enzyme: no, 3 h
[24] = 55 °C, heat treatment of enzyme: no, 6 h
[25] = 55 °C, heat treatment of enzyme: yes, 6 h
[26] = 65° C., heat treatment of enzyme no, reaction time 0 h
[27] = 65° C., heat treatment of enzyme no, reaction time 1 h
[28] = 65° C., heat treatment of enzyme no, reaction time 3 h
[29] = 65° C., heat treatment of enzyme no, reaction time 6 h
[30] = 65° C., heat treatment of enzyme yes, reaction time 6 h
[31] = 65 °C, heat treatment of enzyme: no, 0 h
[32] = 65 °C, heat treatment of enzyme: no, 1 h
[33] = 65 °C, heat treatment of enzyme: no, 3 h
[34] = 65 °C, heat treatment of enzyme: no, 6 h
[35] = 65 °C, heat treatment of enzyme: yes, 6 h
[36] = 80° C., heat treatment of enzyme no, reaction time 0 h
[37] = 80° C., heat treatment of enzyme no, reaction time 1 h
[38] = 80° C., heat treatment of enzyme no, reaction time 3 h
[39] = 80° C., heat treatment of enzyme no, reaction time 6 h
[40] = 80° C., heat treatment of enzyme yes, reaction time 6 h
[41] = 80 °C, heat treatment of enzyme: no, 0 h
[42] = 80 °C, heat treatment of enzyme: no, 1 h
[43] = 80 °C, heat treatment of enzyme: no, 3 h
[44] = 80 °C, heat treatment of enzyme: no, 6 h
[45] = 80 °C, heat treatment of enzyme: yes, 6 h

O=c1c(-c2ccc(O)cc2)coc2cc(O)ccc12 [daidzein]
Decomposition efficiency of daidzin family in concentrated soybean protein [1]: 3.0%
Decomposition efficiency of daidzin family in defatted soybean [1]: 14.5%
Decomposition efficiency of daidzin family in concentrated soybean protein [2]: 26.2%
Decomposition efficiency of daidzin family in defatted soybean [2]: 53.4%
Decomposition efficiency of daidzin family in concentrated soybean protein [3]: 42.7%
Decomposition efficiency of daidzin family in defatted soybean [3]: 54.8%
Decomposition efficiency of daidzin family in concentrated soybean protein [4]: 52.5%
Decomposition efficiency of daidzin family in defatted soybean [4]: 54.9%
Decomposition efficiency of daidzin family in concentrated soybean protein [5]: 3.2%
Decomposition efficiency of daidzin family in defatted soybean [5]: 54.6%
Decomposition efficiency of daidzin family in soymilk (30 °C, heat treatment of enzyme: no, 0 h): 9.1%
Decomposition efficiency of daidzin family in soymilk (30 °C, heat treatment of enzyme: no, 1 h): 41.8%
Decomposition efficiency of daidzin family in soymilk (30 °C, heat treatment of enzyme: no, 3 h): 47.2%
Decomposition efficiency of daidzin family in soymilk (30 °C, heat treatment of enzyme: no, 6 h): 53.8%
Decomposition efficiency of daidzin family in soymilk (30 °C, heat treatment of enzyme: yes, 6 h): 9.1%
Decomposition efficiency of daidzin family in roasted soy flour (35 °C, heat treatment of enzyme: no, 0 h): 3.6%
Decomposition efficiency of daidzin family in roasted soy flour (35 °C, heat treatment of enzyme: no, 1 h): 41.4%
Decomposition efficiency of daidzin family in roasted soy flour (35 °C, heat treatment of enzyme: no, 3 h): 54.7%
Decomposition efficiency of daidzin family in roasted soy flour (35 °C, heat treatment of enzyme: no, 6 h): 60.4%
Decomposition efficiency of daidzin family in roasted soy flour (35 °C, heat treatment of enzyme: yes, 6 h): 5.8%
Decomposition efficiency of daidzin family in concentrated soybean protein [6]: 3.1%
Decomposition efficiency of daidzin family in defatted soybean [6]: 16.2%
Decomposition efficiency of daidzin family in concentrated soybean protein [7]: 45.3%
Decomposition efficiency of daidzin family in defatted soybean [7]: 54.5%
Decomposition efficiency of daidzin family in concentrated soybean protein [8]: 48.8%
Decomposition efficiency of daidzin family in defatted soybean [8]: 56.3%
Decomposition efficiency of daidzin family in concentrated soybean protein [9]: 55.5%
Decomposition efficiency of daidzin family in defatted soybean [9]: 58.3%
Decomposition efficiency of daidzin family in concentrated soybean protein [10]: 5.7%
Decomposition efficiency of daidzin family in defatted soybean [10]: 55.7%
Decomposition efficiency of daidzin family in roasted soy flour [11]: 3.7%
Decomposition efficiency of daidzin family in soymilk [11]: 8.9%
Decomposition efficiency of daidzin family in roasted soy flour [12]: 53.5%
Decomposition efficiency of daidzin family in soymilk [12]: 43.0%
Decomposition efficiency of daidzin family in roasted soy flour [13]: 59.4%
Decomposition efficiency of daidzin family in soymilk [13]: 52.0%
Decomposition efficiency of daidzin family in roasted soy flour [14]: 66.2%
Decomposition efficiency of daidzin family in soymilk [14]: 62.8%
Decomposition efficiency of daidzin family in roasted soy flour [15]: 8.1%
Decomposition efficiency of daidzin family in soymilk [15]: 8.2%
Decomposition efficiency of daidzin family in concentrated soybean protein [16]: 3.0%
Decomposition efficiency of daidzin family in defatted soybean [16]: 14.5%
Decomposition efficiency of daidzin family in concentrated soybean protein [17]: 55.0%
Decomposition efficiency of daidzin family in defatted soybean [17]: 55.0%
Decomposition efficiency of daidzin family in concentrated soybean protein [18]: 59.4%
Decomposition efficiency of daidzin family in defatted soybean [18]: 57.3%
Decomposition efficiency of daidzin family in concentrated soybean protein [19]: 62.3%
Decomposition efficiency of daidzin family in defatted soybean [19]: 59.7%
Decomposition efficiency of daidzin family in concentrated soybean protein [20]: 3.2%
Decomposition efficiency of daidzin family in defatted soybean [20]: 55.9%
Decomposition efficiency of daidzin family in roasted soy flour [21]: 3.7%
Decomposition efficiency of daidzin family in soymilk [21]: 8.6%
Decomposition efficiency of daidzin family in roasted soy flour [22]: 57.2%
Decomposition efficiency of daidzin family in soymilk [22]: 49.1%
Decomposition efficiency of daidzin family in roasted soy flour [23]: 67.5%
Decomposition efficiency of daidzin family in soymilk [23]: 58.9%
Decomposition efficiency of daidzin family in roasted soy flour [24]: 73.3%
Decomposition efficiency of daidzin family in soymilk [24]: 68.9%
Decomposition efficiency of daidzin family in roasted soy flour [25]: 5.3%
Decomposition efficiency of daidzin family in soymilk [25]: 8.6%
Decomposition efficiency of daidzin family in concentrated soybean protein [26]: 3.0%
Decomposition efficiency of daidzin family in defatted soybean [26]: 16.2%
Decomposition efficiency of daidzin family in concentrated soybean protein [27]: 53.9%
Decomposition efficiency of daidzin family in defatted soybean [27]: 55.3%
Decomposition efficiency of daidzin family in concentrated soybean protein [28]: 55.4%
Decomposition efficiency of daidzin family in defatted soybean [28]: 58.4%
Decomposition efficiency of daidzin family in concentrated soybean protein [29]: 56.7%
Decomposition efficiency of daidzin family in defatted soybean [29]: 62.7%
Decomposition efficiency of daidzin family in concentrated soybean protein [30]: 3.2%
Decomposition efficiency of daidzin family in defatted soybean [30]: 32.0%
Decomposition efficiency of daidzin family in roasted soy flour [31]: 3.6%
Decomposition efficiency of daidzin family in soymilk [31]: 9.1%
Decomposition efficiency of daidzin family in roasted soy flour [32]: 56.3%
Decomposition efficiency of daidzin family in soymilk [32]: 48.3%
Decomposition efficiency of daidzin family in roasted soy flour [33]: 59.8%
Decomposition efficiency of daidzin family in soymilk [33]: 56.1%
Decomposition efficiency of daidzin family in roasted soy flour [34]: 62.2%
Decomposition efficiency of daidzin family in soymilk [34]: 64.7%
Decomposition efficiency of daidzin family in roasted soy flour [35]: 4.2%
Decomposition efficiency of daidzin family in soymilk [35]: 8.8%
Decomposition efficiency of daidzin family in concentrated soybean protein [36]: 3.1%
Decomposition efficiency of daidzin family in defatted soybean [36]: 16.2%
Decomposition efficiency of daidzin family in concentrated soybean protein [37]: 31.9%
Decomposition efficiency of daidzin family in defatted soybean [37]: 52.4%
Decomposition efficiency of daidzin family in concentrated soybean protein [38]: 32.0%
Decomposition efficiency of daidzin family in defatted soybean [38]: 52.0%
Decomposition efficiency of daidzin family in concentrated soybean protein [39]: 30.7%
Decomposition efficiency of daidzin family in defatted soybean [39]: 51.7%
Decomposition efficiency of daidzin family in concentrated soybean protein [40]: 3.2%
Decomposition efficiency of daidzin family in defatted soybean [40]: 21.7%
Decomposition efficiency of daidzin family in roasted soy flour [41]: 3.7%
Decomposition efficiency of daidzin family in soymilk [41]: 8.9%
Decomposition efficiency of daidzin family in roasted soy flour [42]: 47.7%
Decomposition efficiency of daidzin family in soymilk [42]: 40.3%
Decomposition efficiency of daidzin family in roasted soy flour [43]: 47.7%
Decomposition efficiency of daidzin family in soymilk [43]: 39.7%
Decomposition efficiency of daidzin family in roasted soy flour [44]: 40.8%
Decomposition efficiency of daidzin family in soymilk [44]: 34.1%
Decomposition efficiency of daidzin family in roasted soy flour [45]: 3.8%
Decomposition efficiency of daidzin family in soymilk [45]: 8.8%
maximum isolation of aglycons (concentrated soybean protein): about 62%
maximum isolation of aglycons (defatted soybean): about 60%
maximum isolation of aglycons (soy flour): about 73%
maximum isolation of aglycons (soymilk): about 70%
